Reference: US20260199505A1, “COMBINATION THERAPY COMPRISING BISPECIFIC ANTIBODIES COMPRISING AN NRP1 BINDING DOMAIN” (Pinetree Therapeutics, Inc., priority 2022, published 2026)
Counter-ions that a name gives are not always drawn.

B1: Amivantamab: an EGFR×cMET bispecific antibody construct (antibody, chains of the INN, looked up, V domains shown)
VH: QVQLVESGGGVVQPGRSLRLSCAASGFTFSTYGMHWVRQAPGKGLEWVAVIWDDGSYKYYGDSVKGRFTISRDNSKNTLYLQMNSLRAEDTAVYYCARDGITMVRGVMKDYFDYWGQGTLVTVSS
VL: AIQLTQSPSSLSASVGDRVTITCRASQDISSALVWYQQKPGKAPKLLIYDASSLESGVPSRFSGSESGTDFTLTISSLQPEDFATYYCQQFNSYPLTFGGGTKVEIK
VH2: QVQLVQSGAEVKKPGASVKVSCETSGYTFTSYGISWVRQAPGHGLEWMGWISAYNGYTNYAQKLQGRVTMTTDTSTSTAYMELRSLRSDDTAVYYCARDLRGTNYFDYWGQGTLVTVSS
VL2: DIQMTQSPSSVSASVGDRVTITCRASQGISNWLAWFQHKPGKAPKLLIYAASSLLSGVPSRFSGSGSGTDFTLTISSLQPEDFATYYCQQANSFPITFGQGTRLEIK

Legend:
[1] = tested on: H1975-HGF; experiment: H1975-HGF (HGF-overexpressing) xenograft model; type: in vivo, mouse; conditions: for tumor volume over time (FIG. 6B): second set, Osimertinib 10 mg/kg i.p. QD, Crizotinib 20 mg/kg i.p. QD, EGFR degrader 15 mg/kg i.p. QW; for tumor volume over time (FIG. 6A): first set, Panitumumab 5 mg/kg, EGFR degrader 6.87 mg/kg, Amivantamab 5.05 mg/kg i.p. BIW, Osimertinib 3 mg/kg i.p. QD
Description: (§1) The H1975-HGF cell line was prepared by recombinantly engineering the H1975 cell line to express HGF by standard methods. Thus, the H1975-HGF xenograft model represents a dual activation model in which both the EGFR and cMET pathways are constitutively activated.

[2] = tested on: HGF/cMET pathway; experiment: HGF/cMET pathway inhibition in H1975 cells; type: cell-based; conditions: data not shown
Description: as §1

[3] = tested on: H1975; experiment: H1975 (Osimertinib-sensitive, parental) xenograft mouse model; type: in vivo; conditions: 3 mg/kg Osimertinib
Description: (§2) In this example, a modified version of the H1975 xenograft model was used in which the tumor cells were engineered to overexpress NRP1.

[4] = tested on: H1975-OR; experiment: Osimertinib-resistant mouse xenograft model (H1975-OR); type: in vivo; conditions: Osimertinib dose of 3 mg/kg
Text: Panitumumab is a fully humanized anti-EGFR monoclonal antibody, which binds to EGFR and block the EGFR signaling. Osimertinib is an EGFR tyrosine kinase inhibitor.

[5] = tested on: H1975-NRP1 OE; experiment: H1975-NRP1 OE (NRP1-overexpressing) xenograft model; conditions: 3 mg/kg Osimertinib
Description: as §2

| Molecule | tumor volume over time (FIG. 6B) [1] | cMET pathway signaling [2] | tumor response [3] | anti-tumor activity [4] | tumor volume over time (FIG. 6A) [1] | tumor response [5] | cMET degradation [2] |
| --- | --- | --- | --- | --- | --- | --- | --- |
| C[C@@H](Oc1cc(-c2cnn(C3CCNCC3)c2)cnc1N)c1c(Cl)ccc(F)c1Cl [Crizotinib] | limited efficacy | blocked cMET pathway signaling |  |  |  |  |  |
| C=CC(=O)Nc1cc(Nc2nccc(-c3cn(C)c4ccccc34)n2)c(OC)cc1N(C)CCN(C)C [Osimertinib, N-(2-{2-dimethylaminoethyl-methylamino}-4-methoxy-5-{[4-(1-methylindol-3-yl)pyrindin-2-yl]amino}phenyl)prop-2-enamide mesylate salt] | did not prevent tumor growth over time |  | strong and persistent tumor regression | did not show anti-tumor activity | exhibited resistance | significant tumor progression |  |
| Panitumumab: fully humanized anti-EGFR monoclonal antibody, which binds to EGFR and block the EGFR signaling |  |  |  |  | exhibited resistance |  |  |
| B1 |  | blocked cMET pathway signaling |  |  |  |  | led to cMET degradation |
